No end group written: not given here.
What was measured:
[1] = molecular target: T1, ATG4B (Homo sapiens, UniProt Q9Y4P1); assay: ATG4 reporter GBRL2-PLA2 assay with recombinant ATG4B; assay type: biochemical; conditions: for inhibitory effect on ATG4B proteolytic activity: recombinant ATG4B 0.1 nM, 100 nM GBRL2-PLA2, EDTA as positive control
T1 sequence (Q9Y4P1 1-393): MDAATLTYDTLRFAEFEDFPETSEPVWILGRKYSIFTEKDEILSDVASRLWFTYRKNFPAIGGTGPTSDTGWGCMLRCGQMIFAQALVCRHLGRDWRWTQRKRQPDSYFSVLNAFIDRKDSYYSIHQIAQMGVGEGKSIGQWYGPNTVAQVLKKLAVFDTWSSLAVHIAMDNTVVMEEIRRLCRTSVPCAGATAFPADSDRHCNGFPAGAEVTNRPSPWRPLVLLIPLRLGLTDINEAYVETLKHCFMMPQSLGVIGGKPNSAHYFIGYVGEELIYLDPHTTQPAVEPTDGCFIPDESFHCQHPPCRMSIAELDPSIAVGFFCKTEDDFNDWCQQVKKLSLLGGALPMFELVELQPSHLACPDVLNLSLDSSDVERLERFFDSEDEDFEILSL
Method: (§1) FIGS. 2A to 2C illustrate the inhibitory effects of GBRL2-derived peptides on ATG4 proteolytic activity according to several embodiments of the present invention. FIGS. 2A and 2B illustrate three α-helical peptides (H1, H2 and H3) derived from GBRL2, which were 2-fold serial titrated and mixed with recombinant ATG4A (5 nM) (FIG. 2A) or recombinant ATG4B (0.1 nM) (FIG. 2B) in the presence of 100 nM reporter GBRL2-PLA2, a general substrate for ATG4 members, to evaluate the inhibitory effect of peptides on ATG4A and ATG4B. The IC50 of peptides on ATG4B and ATG4A was analyzed by Prism 5.0. FIG. 2C illustrates the inhibitory activity of EDTA on proteolysis of ATG4 as a positive control in the upper panel. In the lower panel of FIG. 2C, the H2 peptide was further counter assayed with 0.5 nM caspase-3 and 100 μM DEVD-AFC to validate its specificity.
(§2) The reporter assay was modified from a previous report. Briefly, recombinant ATG4A or ATG4B was mixed with 100 nM GBRL2-PLA2 fusion protein in 20 μL PLA2 reaction buffer containing 20 mM Tris-HCl, pH 8.0, 2 mM CaCl2) and 1 mM DTT, and 20 μM 2-(6-(7-nitrobenz-2-oxa-1,3-diazol-4-yl)amino)hexanoyl-1-hexadecanoyl-sn-glycero-3-phosphocholine (NBD-C6-HPC) (Invitrogen, N-3786). Fluorescence intensity was measured within 30-60 minutes using Fluoroskan Ascent FL Reader (Thermo Fisher Scientific) at room temperature with excitation and emission wavelength of 485 nm and 530 nm, respectively. The IC50 of peptides on GBRL2-PLA2 was determined using nonlinear regression fitting of a series of progress curves.

[2] = molecular target: T2, recombinant ATG4A (Homo sapiens, UniProt Q8WYN0); assay: ATG4 reporter GBRL2-PLA2 assay with recombinant ATG4A; assay type: biochemical; conditions: for inhibitory effect on ATG4A proteolytic activity: recombinant ATG4A 5 nM, 100 nM GBRL2-PLA2, EDTA as positive control
T2 sequence (Q8WYN0 1-398): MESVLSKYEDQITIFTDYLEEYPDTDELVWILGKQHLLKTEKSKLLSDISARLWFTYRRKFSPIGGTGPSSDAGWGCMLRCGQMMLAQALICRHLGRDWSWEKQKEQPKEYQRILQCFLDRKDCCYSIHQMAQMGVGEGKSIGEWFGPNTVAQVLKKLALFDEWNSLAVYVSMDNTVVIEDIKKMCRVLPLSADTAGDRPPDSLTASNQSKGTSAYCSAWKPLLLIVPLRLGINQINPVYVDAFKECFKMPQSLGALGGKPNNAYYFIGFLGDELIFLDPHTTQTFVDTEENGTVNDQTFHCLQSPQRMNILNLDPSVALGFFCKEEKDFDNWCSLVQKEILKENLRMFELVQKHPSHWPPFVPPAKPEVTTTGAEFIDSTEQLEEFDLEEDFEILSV
Method: as §1, §2

[3] = system: human glioblastoma H4 cells; assay: cell migration assay, H4 cells; assay type: cell-based; conditions: TAT-GBRL2 at higher dose (20 μM), data not shown
Method: (§3) Besides the role of ATG4 in cancer cell survival, ATG4 plays a crucial role in cancer metastasis. Human glioblastoma H4 cells and colorectal cancer HCT116 cells were treated with the peptides for the cell migration assay.

[4] = system: H4 cells; assay: propidium iodide (PI) uptake, H4 cells; assay type: cell-based, human; conditions: data not shown
Method: (§4) Since ATG4 might be required for cancer cell viability and metastatic characteristics, such as migration and invasion, the H4 cells and HCT116 cells were treated with peptides to determine the short- and long-term effects of peptide on cancer cells (FIGS. 4A to 4B).

[5] = system: H4 cells; assay: cell viability, H4 cells; assay type: cell-based, human; conditions: data not shown
Method: as §4

[6] = system: HCT116 cells; assay: cell viability, HCT116 cells; assay type: cell-based, human; conditions: data not shown
Method: as §4

[7] = system: HCT116 cells; assay: propidium iodide (PI) uptake, HCT116 cells; assay type: cell-based, human; conditions: data not shown
Method: as §4

[8] = system: colorectal cancer HCT116 cells; assay: cell migration assay, HCT116 cells; assay type: cell-based, human; conditions: TAT-GBRL2 at higher dose (20 μM), data not shown
Method: as §3

[9] = system: HCT116 cells; assay: clonogenic assay, HCT116 cells; assay type: cell-based, human; conditions: peptide 5 μM, long-term treatment
Method: (§5) FIGS. 4A and 4B depict the cytotoxic effects of peptide (5 μM) in H4 cells (FIG. 4A) and HCT116 cells (FIG. 4B) further confirmed by clonogenic assay according to several embodiments of the present invention.
as §4

[10] = molecular target: T3, caspase-3 (Homo sapiens, UniProt P42574); assay: caspase-3 counter assay with DEVD-AFC; assay type: biochemical; conditions: 0.5 nM caspase-3, 100 μM DEVD-AFC
T3 sequence (P42574 29-175 limits assumed): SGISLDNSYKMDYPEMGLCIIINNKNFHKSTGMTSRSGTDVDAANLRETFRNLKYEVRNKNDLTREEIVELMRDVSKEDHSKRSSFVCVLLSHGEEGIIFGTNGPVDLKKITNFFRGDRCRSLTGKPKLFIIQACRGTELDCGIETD
T3 sequence (P42574 176-277 limits assumed): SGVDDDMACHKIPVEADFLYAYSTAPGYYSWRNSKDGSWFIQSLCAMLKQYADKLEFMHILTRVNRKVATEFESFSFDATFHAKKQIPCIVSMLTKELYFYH
Method: as §1

[11] = system: H4 cells; assay: clonogenic assay, H4 cells; assay type: cell-based, human; conditions: peptide 5 μM, long-term treatment
Method: as §5, §4

[12] = molecular target: T1, ATG4B; assay: ATG4B cleavage of chimeric GBRL2 substrate (N-terminal C-myc tag, C-terminal S-tag); assay type: biochemical
Description: FIGS. 3A to 3C illustrate the effects of peptides on cellular ATG4 proteolysis and autophagic flux according to several embodiments of the present invention. FIG. 3A depicts H2 peptides derived from different ATG4 substrates, including MAP1LC3B, MAP1LC3C and GBR, GBRL2 were mixed with chimeric GBRL2 containing N-terminal C-myc tag and C-terminal S-tag. The S-tag GBRL2 in the upper panel and ratios of non-cleaved/cleaved Myc-tag GBRL2 in the lower panel are used to evaluate the inhibitory effects of the H2 peptides. FIG. 3B depicts human glioblastoma H4 cells and colorectal cancer HCT116 cells both treated with 10 μM GBRL2 H2 peptide alone (orange) or TAT peptide alone (red) or GBRL2 H2 peptide conjugated with TAT peptide (green) for 6 hours and analyzed with flow cytometer. […] The luciferase activity is measured to determine the inhibitory effects on cellular ATG4 proteolysis.
Further, H2 helical peptides from different ATG4 substrates were tested for ATG4B activity with GABARAL2 chimeric substrates, which contained N-terminal C-myc tag and C-terminal S-tag (FIG. 3A). Compared to the controls, the remaining S-tag and the ratio of full length C-myc tagged GBRL2/cleaved C-myc tagged GBRL2 levels were quantified to determine the inhibitory effects of peptides on ATG4B proteolytic activity toward GBRL2. […]

[13] = system: cellular ATG4; assay: ATG4 cleavable luciferase assay in cells; assay type: cell-based, human; conditions: HCT116 cells expressing ATG4 cleavable luciferase, 6 hours, ATG4B silencer as positive control
Description: FIGS. 3A to 3C illustrate the effects of peptides on cellular ATG4 proteolysis and autophagic flux according to several embodiments of the present invention. FIG. 3A depicts H2 peptides derived from different ATG4 substrates, including MAP1LC3B, MAP1LC3C and GBR, GBRL2 were mixed with chimeric GBRL2 containing N-terminal C-myc tag and C-terminal S-tag. The S-tag GBRL2 in the upper panel and ratios of non-cleaved/cleaved Myc-tag GBRL2 in the lower panel are used to evaluate the inhibitory effects of the H2 peptides. FIG. 3B depicts human glioblastoma H4 cells and colorectal cancer HCT116 cells both treated with 10 μM GBRL2 H2 peptide alone (orange) or TAT peptide alone (red) or GBRL2 H2 peptide conjugated with TAT peptide (green) for 6 hours and analyzed with flow cytometer. FIG. 3C depicts the HCT116 cells expressing ATG4 cleavable luciferase treated with GBRL2 H2 peptide for 6 hours. The luciferase activity is measured to determine the inhibitory effects on cellular ATG4 proteolysis.
The plasmid MAP1LC3 wt-Luc or MAP1LC3 G120A-Luc (as a normalization control) was transfected into HEK293T (2000 cells/40 μL) seeded in 384-well white plates for overnight. The cells were treated with ATG4 inhibitors for 8 hours or 16 hours, followed by adding 200 μM D-luciferin (Promega) into each well to monitor the luciferase activity to reflect ATG4 activity in cells. […]

[14] = system: HCT116 cells; assay: invasion through Matrigel-coated Transwell filters; assay type: cell-based, human
Description: FIGS. 5A to 5B illustrate the effects of GBRL2 peptides on cancer cell migration and invasion according to several embodiments of the present invention. FIG. 5A depicts the invasion of HCT116 cells examined with Matrigel-coated Transwell filters in the presence or absence of peptides, and the cell invasion results are quantified with ImageJ software. FIG. 5B depicts the quantified results for invasion expressed as the mean±SEM. *p<0.05; **p<0.01.
as §3

Substance | inhibitory effect on ATG4B proteolytic activity [1] | inhibitory effect on ATG4A proteolytic activity [2] | cell migration [3] | PI positive proportion [4] | cell viability [5] | cell viability [6] | PI positive proportion [7] | cell migration [8] | colony formation [9] | IC50 on ATG4B, rank among H1, H2, H3 ([1]; GBRL2-PLA2 reporter assay) | effect on activity of caspase-3 [10] | colony formation [11] | relative strength of inhibition on ATG4B among H2 peptides ([12]; compared with H2 peptides of other ATG4 substrates) | inhibition of ATG4B cleavage activity toward GBRL2 ([12]; remaining S-tag and ratio full length/cleaved C-myc tagged GBRL2) | IC50 on ATG4A, rank among H1, H2, H3 ([2]; GBRL2-PLA2 reporter assay) | cellular luciferase activity (cellular ATG4 proteolysis) [13] | invaded HCT116 cells [14]
H3: α-helical peptide derived from GBRL2, MGQLYEKE, SEQ ID NO:12 (Ac-MGQLYEKE-NH2) | showed inhibitory effects | showed inhibitory effects |  |  |  |  |  |  |  |  |  |  |  |  |  |  | 
H1: α-helical peptide derived from GBRL2, LEHRCVESAKIRAK, SEQ ID NO:11 (Ac-LEHRCVESAKIRAK-NH2) | showed inhibitory effects | showed inhibitory effects |  |  |  |  |  |  |  |  |  |  |  |  |  |  | 
TAT: Tat penetration domain, HIV-1 TAT basic domain, YGRKKRRQRRR, SEQ ID NO:2; control peptide (Ac-YGRKKRRQRRR-NH2) [reference compound] |  |  | not altered | no effects on PI uptake | no or little effects | no or little effects | no effects on PI uptake | not altered |  |  |  |  |  |  |  |  | 
α-helix 2 peptide derived from GBRL2 (GABARAPL2), VAQFMWIIRKR, SEQ ID NO:1 (VAQFMWIIRKR-NH2; not fully specified (N-terminus)) | showed inhibitory effects | showed inhibitory effects | not altered | slightly increased PI positive cells | no or little effects | no or little effects | slightly increased PI positive cells | not altered | reduced colony formation | lowest IC50 | no effects | reduced colony formation | strongest inhibition | inhibited ATG4B cleavage activity in dose dependent manner | lowest IC50 | elevated cellular luciferase activity | significantly decreased the invaded HCT116 cells

— patent publication US11866516B2, “Isolated peptide, anti-cancer medicinal composition including the same and method of specifically reducing or inhibiting activities of cancer cells using the same” (National Sun Yat-Sen Univesity, priority 2020, dated 2024)
